According to ChEMBL document CHEMBL5390203, “Identification of Obscurolide-Type Metabolites and Antifungal Metabolites from the Termite-Associated Streptomyces neopeptinius BYF101” (2023):
In brackets after ≈: the same amount, converted by molar mass. Activity calls are given as the source filed them. The calls are words filed in the database; no cut-off is given here.

Columns and labels:
Cryptococcus neoformans = experiment: Antifungal activity against Cryptococcus neoformans H99 assessed as fungal growth inhibition incubated for 2 days by broth serial dilution method; assay type: functional; settings: H99, 48 h, time 2 day
Candida albicans = experiment: Antifungal activity against Candida albicans SC5314 assessed as fungal growth inhibition incubated for 2 days by broth serial dilution method; assay type: functional; settings: for Activity: time 2.0 day

CC(C)[C@@H]1NC(=O)[C@@H]2CCCN2C1=O
MIC (Cryptococcus neoformans): 100 µg/mL (≈ 510 µM) | Activity (Candida albicans): inactive

CC(=O)Nc1ccccc1O
MIC (Cryptococcus neoformans): 50 µg/mL (≈ 331 µM) | Activity (Candida albicans): inactive

C[C@H](O)/C=C/[C@@H]1OC(=O)C[C@H]1Nc1ccc(C(=O)O)cc1
MIC (Cryptococcus neoformans): 100 µg/mL (≈ 343 µM) | Activity (Candida albicans): inactive

O=C(O)c1c[nH]c2ccccc12
MIC (Cryptococcus neoformans): 12 µg/mL (≈ 74.5 µM) | Activity (Candida albicans): inactive

O=c1[nH]c2ccccc2o1 [BENZOXAZOLINONE]
MIC (Cryptococcus neoformans): 25 µg/mL (≈ 185 µM) | Activity (Candida albicans): inactive

O=C1[C@H](Cc2ccccc2)NC(=O)[C@]2(O)CCCN12
MIC (Cryptococcus neoformans): 50 µg/mL (≈ 192 µM) | Activity (Candida albicans): inactive

CC(C)C[C@@H]1NC(=O)CNC1=O
MIC (Cryptococcus neoformans): 25 µg/mL (≈ 147 µM) | Activity (Candida albicans): inactive

O=C1CNC(=O)[C@H](Cc2ccccc2)N1
MIC (Cryptococcus neoformans): 50 µg/mL (≈ 245 µM) | Activity (Candida albicans): inactive

Cc1cc(O)cc2cc3c(c(O)c12)C(=O)CC[C@@H]3O
MIC (Cryptococcus neoformans): 50 µg/mL (≈ 194 µM) | Activity (Candida albicans): inactive

O=C1N[C@@H](Cc2ccccc2)C(=O)N2C[C@H](O)C[C@@H]12
MIC (Cryptococcus neoformans): 50 µg/mL (≈ 192 µM) | Activity (Candida albicans): inactive

OC(Cn1cncn1)(Cn1cncn1)c1ccc(F)cc1F [FLUCONAZOLE]
MIC (Cryptococcus neoformans): 4 µg/mL (≈ 13.1 µM)

CC(=O)CC[C@@H]1OC(=O)C[C@H]1Nc1ccc(C(=O)O)cc1
MIC (Cryptococcus neoformans): 50 µg/mL (≈ 172 µM) | MIC (Candida albicans; SC5314, 48 h, time 2 day): > 100 µg/mL

C[C@@H]1NC(=O)[C@H](Cc2ccccc2)NC1=O
MIC (Cryptococcus neoformans): 100 µg/mL (≈ 458 µM) | Activity (Candida albicans): inactive

CC(C)C[C@@H]1NC(=O)[C@@H]2CCCN2C1=O
MIC (Cryptococcus neoformans): 50 µg/mL (≈ 238 µM) | Activity (Candida albicans): inactive

C/C=C/[C@H](O)[C@@H]1OC(=O)C[C@H]1Nc1ccc(C(=O)O)cc1
MIC (Cryptococcus neoformans): 25 µg/mL (≈ 85.8 µM) | Activity (Candida albicans): inactive

CC(C)C[C@@H]1NC(=O)[C@H](C(C)C)NC1=O
MIC (Cryptococcus neoformans): 50 µg/mL (≈ 236 µM) | Activity (Candida albicans): inactive

Cc1c(C(=O)O)c(O)cc2c1C(=O)c1c(O)cc(O)cc1C2=O
MIC (Cryptococcus neoformans): 100 µg/mL (≈ 318 µM) | Activity (Candida albicans): inactive

CC(=O)NCCc1c[nH]c2ccccc12 [NB-ACETYLTRYPTAMINE]
MIC (Cryptococcus neoformans): 200 µg/mL (≈ 989 µM) | Activity (Candida albicans): inactive

C[C@]1(O)CC(=O)c2c(cc3cccc(O)c3c2O)C1
MIC (Cryptococcus neoformans): 50 µg/mL (≈ 194 µM) | Activity (Candida albicans): inactive

Cc1c(C(=O)O)c(O)cc2c1C(=O)c1c(O)cccc1C2=O
MIC (Cryptococcus neoformans): 100 µg/mL (≈ 335 µM) | Activity (Candida albicans): inactive

CC(C)C[C@@H]1NC(=O)[C@@H]2C[C@@H](O)CN2C1=O
MIC (Cryptococcus neoformans): 25 µg/mL (≈ 110 µM) | Activity (Candida albicans): inactive
